Reference: paper PMC5308906 (Angewandte Chemie (International ed. in English), 2016)
No end group written: not given here.

How the values were obtained:
εPKC = biological target: T1, εPKC (Homo sapiens, UniProt Q02156); experiment: In vitro binding assay of εPKC to the peptides; conditions: εPKC at ~75 μg/mL (~1 μM)
T1 sequence (Q02156 1-737): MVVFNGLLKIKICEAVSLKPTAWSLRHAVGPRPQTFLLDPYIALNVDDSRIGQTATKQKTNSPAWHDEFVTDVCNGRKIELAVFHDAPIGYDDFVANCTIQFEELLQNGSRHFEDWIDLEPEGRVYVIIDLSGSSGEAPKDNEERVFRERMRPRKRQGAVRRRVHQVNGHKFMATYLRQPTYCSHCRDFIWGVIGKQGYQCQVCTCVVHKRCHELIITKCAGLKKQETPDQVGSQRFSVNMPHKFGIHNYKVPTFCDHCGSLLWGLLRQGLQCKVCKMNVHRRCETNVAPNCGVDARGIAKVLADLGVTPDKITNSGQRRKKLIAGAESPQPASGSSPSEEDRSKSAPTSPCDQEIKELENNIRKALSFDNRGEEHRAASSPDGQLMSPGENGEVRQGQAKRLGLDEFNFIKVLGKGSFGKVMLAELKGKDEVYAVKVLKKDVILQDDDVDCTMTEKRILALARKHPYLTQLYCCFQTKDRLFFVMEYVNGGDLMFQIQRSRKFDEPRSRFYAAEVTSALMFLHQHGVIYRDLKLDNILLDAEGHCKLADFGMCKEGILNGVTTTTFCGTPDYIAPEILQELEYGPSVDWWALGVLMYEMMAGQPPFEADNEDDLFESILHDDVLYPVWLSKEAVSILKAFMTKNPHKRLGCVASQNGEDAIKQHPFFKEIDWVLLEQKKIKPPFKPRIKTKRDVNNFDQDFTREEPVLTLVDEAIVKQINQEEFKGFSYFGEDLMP

phosphorylation of Drp1 = experiment: Drp1 phosphorylation after cardiac I/R, ψDrp1 derivatives; conditions: hearts subjected to I/R
[1] = system: Rat hearts subjected to I/R; experiment: Langendorff ex vivo model of myocardial infarction; conditions: ψDrp1 alanine substitution study, n=4
δPKC = δPKC (Homo sapiens, UniProt Q05655); experiment: In vitro binding assay of δPKC to the peptides
H9c2 cells [2] = experiment: Mitochondrial ROS production; conditions: H9c2, ischemia and reoxygenation; peptide 2 μM
H9c2 cells [3] = format: cell-based; conditions: H9c2, ischemia and reoxygenation

δPKC, sequence (Q05655 whole entry): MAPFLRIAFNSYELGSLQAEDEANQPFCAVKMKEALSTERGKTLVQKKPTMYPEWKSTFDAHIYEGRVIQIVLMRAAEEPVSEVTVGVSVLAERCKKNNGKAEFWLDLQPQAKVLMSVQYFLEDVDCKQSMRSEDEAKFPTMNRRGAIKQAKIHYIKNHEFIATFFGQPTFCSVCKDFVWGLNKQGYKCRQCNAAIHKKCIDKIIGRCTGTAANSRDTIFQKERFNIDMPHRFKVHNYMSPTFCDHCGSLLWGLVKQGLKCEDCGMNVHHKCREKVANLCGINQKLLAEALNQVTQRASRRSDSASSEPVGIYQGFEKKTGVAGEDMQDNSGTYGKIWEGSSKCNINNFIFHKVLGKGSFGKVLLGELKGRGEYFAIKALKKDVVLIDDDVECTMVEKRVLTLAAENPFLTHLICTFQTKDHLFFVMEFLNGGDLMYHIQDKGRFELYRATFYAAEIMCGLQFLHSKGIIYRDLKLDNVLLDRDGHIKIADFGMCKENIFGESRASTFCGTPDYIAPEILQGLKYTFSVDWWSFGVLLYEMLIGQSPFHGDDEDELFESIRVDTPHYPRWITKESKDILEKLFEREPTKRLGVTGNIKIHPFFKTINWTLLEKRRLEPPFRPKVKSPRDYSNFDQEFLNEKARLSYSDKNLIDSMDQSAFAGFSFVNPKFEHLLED

## RAAEEP-NH2 (C-terminus assumed) [ψMARCKS-Cargo]
εPKC
  Binding to εPKC: not to the another PKC isozyme, εPKC

## YTAFDE-TAT [ψDrp1 Asp3 Ala]
Phosphorylation of Drp1
  Effect on Drp1 phosphorylation: inhibited Drp1 phosphorylation
[1]
  Protection from cardiac damage: 65%

## YTDFDE [ψDrp1-Cargo]
δPKC
  Kd: 1.4 ± 0.3 nM

## YGRKKRRQRRRGGYTDFDE-NH2 (C-terminus assumed) [ψDrp1]
H9c2 cells [2]
  Effect on excessive mitochondrial ROS production: decreased excessive mitochondrial ROS production
H9c2 cells [3]
  Effect on mitochondrial function and cell viability: rescued mitochondrial function and cell viability
[1]
  Protection from cardiac damage: 75%
